Test system: human dermal fibroblasts
Assay: Adipogenesis (Oil Red O) of fibroblasts detached with trypsin and seeded at high density
Format: cell-based
Description: After incubation for about 12-21 days in adipogenic medium, the medium is removed, and cells are fixed in 10% formaldehyde solution in aqueous phosphate buffer for at least 1 hour. Cells are then washed with 60% isopropanol and stained with a working solution of Oil Red 0 solution (in 60% isopropanol, see below for preparation) for 10 minutes. The cells are then washed several times with water, and destained in 100% isopropanol for 15 minutes. The destain solution is removed and the optical density of the solution is measured at 500-510 nm.
In a this set of experiments for producing cells having the ability to differentiate into different cell types, fibroblasts are either incubated in media without trypsin or containing trypsin and then cultured at different lengths of time under high density conditions of about 100,000 cells per well/plate or at about 3703.7 cells per mm^2 surface area of the well/plate before adherence of the cells in a high density plating medium. The cells produced by this method are then tested for their ability to differentiate into adipocytes, as determined by the accumulation of fat.
Fresh human dermal fibroblasts derived from adult skin or from foreskin are purchased from PromoCell® (Banksia Scientific Company, QLD). […]
Test cells are recovered from culture and seeded at concentrations of about 100,000 cells per well/plate or at about 3703.7 cells per mm^2 surface area of the well/plate before attachment of the cells to the plate/well directly in 200 to 400 μl high density plating medium (e.g., Medium 199 containing 170 nM insulin, 0.5 mM 3-isobutyl-1-methylxanthine, 0.2 mM indomethacin, 1 μM dexamethasone, and 15% rabbit serum) for a time and under conditions sufficient for an optimum number of progenitor cells to be produced e.g., for up to about 24 hours or until adherence is achieved, i.e., a shorter time than required for cells to become adherent and/or as determined by analysis of cell marker expression and/or by the ability of aliquots of cells to subsequently undergo differentiation. […]

## trypsin
Detached with 0.12% trypsin, seeded at about 100,000 cells per well in high density plating medium before adherence, then adipogenic medium, cells without trypsin gave no detectable adipocytes
  ability to differentiate into adipocytes: capable of differentiating into adipocytes
Numbers of fat-producing cells assayed from day 10 to day 21 in adipogenic medium
  optimum time in adipogenic medium for assuming ability to differentiate into adipocytes: 10 to 14 days
Seeding directly into high density plating medium
  time from incubation with trypsin to high density seeding at which adipocytes are apparent: ≤ 6 h

Reference: US20120121546A1, “Method of Producing Progenitor Cells from Differentiated Cells” (priority 2009, published 2012)
